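Five compound concentrations were applied to cells in 96-well plates for 48 hours; endpoints were derived by simple linear interpolation of the resulting dose-response curve. At the GI50, growth is halved. TGI is the concentration that stops growth completely.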
Tests used:
Experiment in all cases: inhibition of tumour cell growth, NCI panel, 48 h
[1] = test system: NCI-H23 lung
[2] = test system: RXF 393 renal
[3] = test system: NCI-H226 lung
[4] = test system: HS 578T breast
[5] = test system: 786-0 renal
[6] = test system: NCI/ADR-RES ovarian
[7] = test system: HCC-2998 colon
[8] = test system: HOP-92 NSCLC
[9] = test system: MOLT-4 leukemia
[10] = test system: SK-MEL-5 melanoma
[11] = test system: DU-145 prostate
[12] = test system: KM12 colon
[13] = test system: MALME-3M melanoma
[14] = test system: MCF7 breast
[15] = test system: LOX IMVI melanoma
[16] = test system: NCI-H460 lung
[17] = test system: HOP-62 NSCLC
[18] = test system: EKVX NSCLC
[19] = test system: HT29 colon
[20] = test system: T-47D breast
[21] = test system: IGROV1 ovarian
[22] = test system: UACC-257 melanoma
[23] = test system: SR leukemia
[24] = test system: SN12C renal
[25] = test system: SK-MEL-2 melanoma
[26] = test system: SF-268 CNS
[27] = test system: SK-OV-3 ovarian
[28] = test system: HL-60(TB) leukemia
[29] = test system: OVCAR-4 ovarian
[30] = test system: SW-620 colon
[31] = test system: SNB-75 CNS
[32] = test system: SNB-19 CNS
[33] = test system: A498 renal
[34] = test system: M14 melanoma
[35] = test system: U251 CNS
[36] = test system: SK-MEL-28 melanoma
[37] = test system: HCT-15 colon
[38] = test system: OVCAR-5 ovarian
[39] = test system: COLO 205 colon
[40] = test system: UACC-62 melanoma
[41] = test system: NCI-H522 lung
[42] = test system: K-562 leukemia
[43] = test system: RPMI-8226 leukemia
[44] = test system: ACHN renal
[45] = test system: CCRF-CEM leukemia
[46] = test system: MDA-MB-231 breast
[47] = test system: PC-3 prostate
[48] = test system: CAKI-1 renal
[49] = test system: SF-295 CNS
[50] = test system: HCT-116 colon
[51] = test system: A549 NSCLC
[52] = test system: SF-539 CNS
[53] = test system: TK-10 renal
[54] = test system: MDA-MB-435
[55] = test system: BT-549 breast
[56] = test system: OVCAR-8 ovarian
[57] = test system: OVCAR-3 ovarian

COc1ccc2c(c1)C(=O)c1c-2c(=O)n(CCCCCCC(=O)NO)c2ccccc12
GI50 [1]: 296 nM | TGI [1]: 1810 nM | GI50 [2]: 224 nM | TGI [2]: 1770 nM | GI50 [3]: 1180 nM | TGI [3]: > 100000 nM | GI50 [4]: 160 nM | TGI [4]: 4470 nM | GI50 [5]: 1320 nM | TGI [5]: 11500 nM | GI50 [6]: 94.1 nM | TGI [6]: 2290 nM | GI50 [7]: 398 nM | TGI [7]: 1840 nM | GI50 [8]: 197 nM | TGI [8]: 1240 nM | GI50 [9]: 139 nM | TGI [9]: > 100000 nM | GI50 [10]: 184 nM | TGI [10]: 1080 nM | GI50 [11]: 428 nM | TGI [11]: 10800 nM | GI50 [12]: 358 nM | GI50 [13]: 202 nM | TGI [13]: 60900 nM | GI50 [14]: 226 nM | TGI [14]: 10200 nM | GI50 [15]: 236 nM | TGI [15]: 1130 nM | GI50 [16]: 269 nM | TGI [16]: > 100000 nM | GI50 [17]: 98.7 nM | TGI [17]: 2710 nM | GI50 [18]: 700 nM | TGI [18]: > 100000 nM | GI50 [19]: 282 nM | TGI [19]: 2750 nM | GI50 [20]: 94.8 nM | TGI [20]: 526 nM | GI50 [21]: 732 nM | TGI [21]: 12200 nM | GI50 [22]: 223 nM | TGI [22]: 2310 nM | GI50 [23]: 99.9 nM | TGI [23]: > 100000 nM | GI50 [24]: 1360 nM | TGI [24]: 88200 nM | GI50 [25]: 1230 nM | TGI [25]: 5900 nM | GI50 [26]: 1060 nM | TGI [26]: 9800 nM | GI50 [27]: 300 nM | TGI [27]: 2970 nM | GI50 [28]: 325 nM | TGI [28]: > 100000 nM | GI50 [29]: 1110 nM | TGI [29]: 17500 nM | GI50 [30]: 130 nM | TGI [30]: 695 nM | GI50 [31]: 93 nM | TGI [31]: 13800 nM | GI50 [32]: 616 nM | TGI [32]: 13400 nM | GI50 [33]: 245 nM | TGI [33]: 985 nM | GI50 [34]: 407 nM | TGI [34]: 13900 nM | GI50 [35]: 352 nM | TGI [35]: 2010 nM | GI50 [36]: 478 nM | TGI [36]: 3120 nM | GI50 [37]: 602 nM | TGI [37]: > 100000 nM | GI50 [38]: 527 nM | TGI [38]: 12300 nM | GI50 [39]: 304 nM | TGI [39]: 1710 nM | GI50 [40]: 145 nM | TGI [40]: 1380 nM | GI50 [41]: 82.2 nM | TGI [41]: 1170 nM | GI50 [42]: 260 nM | TGI [42]: > 100000 nM | GI50 [43]: 259 nM | TGI [43]: > 100000 nM | GI50 [44]: 226 nM | TGI [44]: 1700 nM | GI50 [45]: 138 nM | TGI [45]: > 100000 nM | GI50 [46]: 715 nM | TGI [46]: 26000 nM | GI50 [47]: 491 nM | TGI [47]: > 100000 nM | GI50 [48]: 720 nM | TGI [48]: 3720 nM | GI50 [49]: 733 nM | TGI [49]: 4850 nM | GI50 [50]: 66.4 nM | TGI [50]: 1150 nM | GI50 [51]: 416 nM | TGI [51]: 3190 nM | GI50 [52]: 480 nM | TGI [52]: 28700 nM | GI50 [53]: 74.3 nM | TGI [53]: 1680 nM | GI50 [54]: 197 nM | TGI [54]: 2290 nM | GI50 [55]: 2710 nM | TGI [55]: 42600 nM | GI50 [56]: 329 nM | TGI [56]: 25200 nM | GI50 [57]: 292 nM | TGI [57]: 2110 nM

— PubChem BioAssay (NCI)
